# Measurements as given in PMC6746776, “TA*p63 and GTAp63 achieve tighter transcriptional regulation in quality control by converting an inhibitory element into an additional transactivation domain” (Cell Death & Disease, 2019).
# Entries after “also recorded” stand apart in the source; their conditions may differ.
# T1: TA*-GTA* peptide (1*-39*) (fluorescein on the N-terminus)
# T1 chain: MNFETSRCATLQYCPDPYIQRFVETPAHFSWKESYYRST
# Experiments:
# GTAp63α = assay: BN-PAGE oligomeric state of GTAp63α upon Dox treatment
# Description: (§4) As a control, we used the S582/S583A mutants, which remove the Chk2 priming site preventing tetramerization[13].
# (§5) Three hundred nanogram expression vector carrying the p63α gene were transiently transfected in U2OS cells (12-well plate). The next day, cells were treated with 10 µM Dox for 6 h. Migration of the different oligomeric states is indicated by T (tetramer), D (dimer), and M (monomer). […] Western blot analysis was carried out using an anti-myc antibody (4A6, Merck). Cells were pre-incubated with increasing Chk2 (BML-277, Merck) or CK1 inhibitor (PF670462, Sigma–Aldrich) concentrations (5, 25, 50 µM) for 1 h. Afterwards, 10 µM Dox was added and cells were harvested 6 h later. Migration of the different oligomeric states is indicated by T (tetramer), D (dimer), and M (monomer). Vinculin was used as loading control. Protein levels loaded on BN-PAGE were adjusted to equal p63 amounts by prior western blot analysis. SDS-PAGE to detect phosphoshifts were not input adjusted
# (§6) H1299 cells were transfected using the Qiagen Effectene kit according to the manufacturer’s manual in a 12-well plate or H1299 cells stably expressing p63 isoforms were used. Cells were harvested and lysed in NP lysis buffer (20 mM Tris, 150 mM NaCl, 2 mM MgCl2, 20 mM CHAPS, 1 mM DTT, complete protease inhibitor cocktail (Roche), PhosSTOP (Roche) pH 7.4 or pH 8.0). Benzonase (Merck) was added and samples were lysed on ice for 1 h. BN-PAGE (3–12%, Thermo Fisher Scientific) was performed and blotted as previously described[17],[35]. Protein levels loaded on BN-PAGE were adjusted to equal p63 amounts by prior western blot analysis. SDS-PAGE to detect phosphoshifts were not input adjusted.
# (§7) 300 ng expression vector carrying the p63 gene were transiently transfected in H1299 cells (12-well plate). The next day, cells were treated with 10 µM Dox for 6 h. Migration of the different oligomeric states is indicated by T (tetramer), D (dimer) and M (monomer). […] Stably p63 expressing H1299 were treated with 10 µM Dox for up to 10 h. Protein levels loaded on BN-PAGE were adjusted to equal p63 amounts by prior western blot analysis. SDS-PAGE to detect phosphoshifts were not input adjusted.
# TA*p63α in Sum159 cells [1] = assay: BN-PAGE of Sum159 lysate, oligomeric state of endogenous TA*p63α; assay type: cell-based, human; conditions: 10 µM Dox, different periods of time, BN-PAGE (3–12%)
# Description: (§1) Immunoprecipitation was performed with two different p63 specific antibodies, AHP1815 (BioRad) and ab124267 (Abcam). For detection on WB, the p63α XP (D2K8X, cell signaling) antibody was used. b Specific TA*-peptides were found in two independent IP-MS analyses of immunoprecipitated p63 from Sum159 cells. Immunoprecipitation was performed with the p63 antibody ab124267 (Abcam). Two different types of mass spectrometers relying on different fragmentation and detection approaches were used for the experiments (IT: ion trap, CID: collision induced dissociation, FT: Fourier transform, HCD: higher-energy collisional dissociation). c BN-PAGE (3–12%) of Sum159 lysate followed by western blotting for TA*p63α. […] Cells were treated with 1.5 µM Dox or DMSO for 24 h (six-well plate) and cultured for additional 24–30 h. Sum159 cells were fixed with glutaraldehyde (6%) and stained with crystal violet (0.5%)
# To test whether TA*p63α can be activated in Sum159 cells by chemotherapeutic agents and induce apoptosis we treated cells with 10 µM Dox. […] Furthermore, the apoptosis marker cleaved PARP and cleaved Caspase3 are detectable starting 4 h following treatment (Supplementary Fig. S8). We also investigated cell survival.
# TAp63α = assay: BN-PAGE oligomeric state of TAp63α upon Dox treatment
# Description: as §4, §5, §6
# 300 ng expression vector carrying the p63 gene were transiently transfected in H1299 cells (12-well plate). The next day, cells were treated with 10 µM Dox for 6 h. Migration of the different oligomeric states is indicated by T (tetramer), D (dimer) and M (monomer). […] Stably p63 expressing H1299 were treated with 10 µM Dox for up to 10 h. […]
# TA*p63α = assay: BN-PAGE oligomeric state of TA*p63α upon Dox treatment
# Description: as §4, §5, §6, §7
# Sum159 cells [2] = assay: Western blot, apoptosis markers cleaved PARP and cleaved Caspase3 in Sum159 cells; assay type: cell-based, human; conditions: 10 µM Dox, immunoblotting
# Description: (§2) 4–15 or 7.5% SDS–PAGE Mini-PROTEAN TGX gels (BioRad) were blotted using the semidry Trans-Blot Turbo Transfer system (BioRad).The following antibodies were prepared in 5% milk in TBS-T and incubated overnight at 4 °C: anti-Myc (1:1000, clone 4A6, Millipore), anti-p63 (1:2500, ab124762, Abcam), anti-p63α XP (1:1000, D2K8X, Cell Signaling), anti-GAPDH (1:20,000, clone 6C5, Merck), anti-p53 (1:500, DO-1, Santa Cruz), anti-PARP (1:1000, 9542, Cell Signaling), anti-cleaved caspase3 (1:1000, 5A1E,Cell Signaling), and anti-vinculin (1:1000, clone 7F9, Santa Cruz). Secondary antibodies, used for detection, were also prepared in 5% milk in TBS-T and incubated for 1 h at RT (goat anti-mouse HRP, 1:5000, A9917, Sigma–Aldrich; goat anti-rabbit HRP, 1:2000, Jackson Immuno Research Europe Ltd., 111–035–144). Quantification of western blot signals was performed by using ImageJ.
# (§3) Supplementary Figure S8 Dox treatment induces apoptosis in the breast cancer cell line Sum159. SDS-PAGEs followed by immunoblotting of Dox treated (10 µM) Sum159 cells. (a) Western blot was analyzed for the apoptosis markers PARP (#9542, Cell Signaling) and caspase 3 (5A1E, Cell Signaling). PARP and caspase3 cleavage were detectable starting at 4 h following treatment. (b) Mutant p53 (DO-1, Santa Cruz) and TA*p63α (D2K8X, Cell Signaling) levels were also investigated. […] GAPDH was used as loading control.
# TA*p63α in Sum159 cells [3] = assay: Western blot, TA*p63α level in Sum159 cells; assay type: cell-based, human; conditions: 10 µM Dox, immunoblotting (D2K8X)
# Description: as §2, §3
# [4] = tested on: mutant p53 in Sum159 cells; assay: Western blot, mutant p53 level in Sum159 cells; assay type: cell-based, human; conditions: 10 µM Dox, mutant p53, immunoblotting (DO-1)
# Description: as §2, §3
# Sum159 cells [5] = assay: Cell survival assay of Sum159 cells (crystal violet); assay type: cell-based, human; conditions: 1.5 µM Dox for 24 h, cultured for additional 24 h (24–30 h in method), vs DMSO
# Description: as §1
# Sum159 cells were seeded in a six-well plate. Two days after seeding, cells were treated either with 1.5 µM Dox or DMSO for 24 h. The medium was changed and cells were cultured for additional 24–30 h. Afterwards, cells were washed three times with PBS and the fixation and staining solution (0.5% crystal violet, 6% glutaraldehyde) was incubated 1–2 h at RT. The solution was aspirated and the fixed cells were washed about five times with H2O and dried for 1–2 days at RT.
# [6] = molecular target: T1, TA*-GTA* peptide (1*-39*); assay: fluorescence polarisation; fluorescence anisotropy; 100 nM N-terminally fluorescein-labelled peptide, increasing concentration of Taz2; 22 °C; two site specific binding fit; conditions: both partners purified
# [7] = molecular target: GTA-GTA* peptide (1′-37′) (not stated (isoform of humans and great apes)); assay: as above
# [8] = molecular target: the molecule itself; assay: SEC; in vitro translated protein in rabbit reticulocyte lysate on Superose 6 3.2/300, 50 mM sodium phosphate pH 7.8, 100 mM NaCl, 4 °C; fractions analysed by western blot
# TAp63α FWL = assay: as above
# [9] = molecular target: the molecule itself; assay: native gel or EMSA; Blue-Native PAGE (3-12%) of Sum159 lysate, endogenous protein, cells treated with 10 µM doxorubicin for different periods of time
# [10] = molecular target: the molecule itself; assay: native gel or EMSA; Blue-Native PAGE (3-12%) of Sum159 lysate, endogenous protein, before doxorubicin
# [11] = H1299 stably expressing, 10 µM Dox for up to 10 h, BN-PAGE (Supplementary Fig. S4c)
# [12] = transfected U2OS and H1299 cells, 10 µM Dox, 6 h, BN-PAGE
molecule,measurement,setting,value
"COc1cccc2c1C(=O)c1c(O)c3c(c(O)c1C2=O)C[C@@](O)(C(=O)CO)C[C@@H]3O[C@H]1C[C@H](N)[C@H](O)[C@H](C)O1 [Dox, doxorubicin]","tetramer/dimer ratio following Dox, GTAp63α",GTAp63α; [11],do not achieve predominant tetramerization like TAp63α; also recorded: significant population of the dimeric state; also recorded: do not reach the high tetramer/dimer ratio seen with TAp63α
same,"activation to tetrameric state, GTAp63α",GTAp63α; [12],activates all three isoforms to adopt tetrameric states
same,shift of oligomeric state of TA*p63α in Sum159 cells,TA*p63α in Sum159 cells [1],"activated upon Dox treatment; also recorded: shifted from the inactive, dimeric to the active, tetrameric form"
same,shift of oligomeric state of TA*p63α in Sum159 cells,TA*p63α in Sum159 cells [1]; listed as doxorubicin,TA*p63α gets activated
same,"tetramer/dimer ratio following Dox, TAp63α",TAp63α; [11],almost completely converted into tetramers
same,time after which TAp63α becomes partly tetrameric,"TAp63α; tetramerization kinetics, H1299 stably expressing, 10 µM Dox for up to 10 h",1 h
same,"activation to tetrameric state, TAp63α",TAp63α; [12],activates all three isoforms to adopt tetrameric states
same,"tetramer/dimer ratio following Dox, TA*p63α",TA*p63α; [11],do not achieve predominant tetramerization like TAp63α; also recorded: significant population of the dimeric state; also recorded: do not reach the high tetramer/dimer ratio seen with TAp63α
same,"activation to tetrameric state, TA*p63α",TA*p63α; [12],activates all three isoforms to adopt tetrameric states
same,time from which cleaved Caspase3 is detectable,Sum159 cells [2],4 h
same,time from which cleaved PARP is detectable,Sum159 cells [2],4 h
same,p63 level during treatment,TA*p63α in Sum159 cells [3],A decrease in p63 and p53 level is detectable
same,p53 level during treatment,[4],A decrease in p63 and p53 level is detectable
same,cell survival (cell density),Sum159 cells [5],clear decrease in cell density
p300 Taz2 domain (domain or fragment) ATQSPGDSRRLSIQRCIQSLVHACQCRNANCSLPSCQKMKRVVQHTKGCKRKTNGGCPICKQLIALCCYHAKHCQENKCPVPFCLNIKQK,Kd,[6],13.2 ± 0.93 µM
same,Kd,[7],4.79 µM
"TA*p63α FWL (natural protein, UniProt Q9H3D4-1 1-680, looked up, TA*p63α: another translation start site adds 39 aa N-terminally to TAp63α; also called FWL mutant of TA*p63α; source: in vitro translated (rabbit reticulocyte lysate); not shown: myc, N-terminal, kept) MNFETSRCATLQYCPDPYIQRFVETPAHFSWKESYYRSTMSQSTQTNEFLSPEVAQHIADFAEQPICSVQPIDLNFVDEPSEDGATNKIEISMDCIRMQDSDLSDPMWPQYTNLGLLNSMDQQIQNGSSSTSPYNTDHAQNSVTAPSPYAQPSSTFDALSPSPAIPSNTDYPGPHSFDVSFQQSSTAKSATWTYSTELKKLYCQIAKTCPIQIKVMTPPPQGAVIRAMPVYKKAEHVTEVVKRCPNHELSREFNEGQIAPPSHLIRVEGNSHAQYVEDPITGRQSVLVPYEPPQVGTEFTTVLYNFMCNSSCVGGMNRRPILIIVTLETRDGQVLGRRCFEARICACPGRDRKADEDSIRKQQVSDSTKNGDGTKRPFRQNTHGIQMTSIKKRRSPDDELLYLPVRGRETYEMLLKIKESLELMQYLPQHTIETYRQQQQQQHQHLLQKQTSIQSPSSYGNSSPPLNKMNSMNKLPSVSQLINPQQRNALTPTTIPDGMGANIPMMGTHMPMAGDMNGLSPTQALPPPLSMPSTSHCTPPPPYPTDCSIVSFLARLGCSSCLDYFTTQGLTTIYQIEHYSMDDLASLKIPEQFRHAIWKGILDHRQLHEFSSPSHLLRTPSSASTVSVGSSETRGERVIDAVRFTLRQTISFPPRDEWNDFNFDMDARRNKQQRIKEEGE",stoichiometry N,[8],2
same,stoichiometry N,TAp63α FWL,4
"TA*p63α (natural protein, human (endogenous in Sum159), UniProt Q9H3D4-1 1-680, looked up, also called endogenous TA*p63α of Sum159 cells; source: endogenous, Sum159 lysate) MNFETSRCATLQYCPDPYIQRFVETPAHFSWKESYYRSTMSQSTQTNEFLSPEVFQHIWDFLEQPICSVQPIDLNFVDEPSEDGATNKIEISMDCIRMQDSDLSDPMWPQYTNLGLLNSMDQQIQNGSSSTSPYNTDHAQNSVTAPSPYAQPSSTFDALSPSPAIPSNTDYPGPHSFDVSFQQSSTAKSATWTYSTELKKLYCQIAKTCPIQIKVMTPPPQGAVIRAMPVYKKAEHVTEVVKRCPNHELSREFNEGQIAPPSHLIRVEGNSHAQYVEDPITGRQSVLVPYEPPQVGTEFTTVLYNFMCNSSCVGGMNRRPILIIVTLETRDGQVLGRRCFEARICACPGRDRKADEDSIRKQQVSDSTKNGDGTKRPFRQNTHGIQMTSIKKRRSPDDELLYLPVRGRETYEMLLKIKESLELMQYLPQHTIETYRQQQQQQHQHLLQKQTSIQSPSSYGNSSPPLNKMNSMNKLPSVSQLINPQQRNALTPTTIPDGMGANIPMMGTHMPMAGDMNGLSPTQALPPPLSMPSTSHCTPPPPYPTDCSIVSFLARLGCSSCLDYFTTQGLTTIYQIEHYSMDDLASLKIPEQFRHAIWKGILDHRQLHEFSSPSHLLRTPSSASTVSVGSSETRGERVIDAVRFTLRQTISFPPRDEWNDFNFDMDARRNKQQRIKEEGE",stoichiometry N,[9],4
same,stoichiometry N,[10],2
